Like-named read-outs stand apart in the source and are kept apart here.
Columns and labels:
[1] = system: Leishmania donovani promastigotes (LdP); experiment: MTS-PMS viability assay in Leishmania donovani promastigotes; type: cell-based; settings: endpoint at 48 h, 5 × 10^5 LdP/mL, read-out: IC50 (µM) Mean ± SD LdP
Description: Leishmania donovani (PS14) were originated from the splenic aspirate of a patient with visceral leishmaniasis. Typing of the species was done by a restriction fragment length polymorphism (RFLP) method. The parasites were cultivated in M199 medium supplemented with 20% FBS, penicillin G (50,000 IU/L), streptomycin (50 mg/L), and hemin (5 µM) at 24 °C for transformation. After 1–2 weeks, the successfully transformed parasites (Leishmania donovani promastigotes, LdP) were transferred to M199 medium supplemented with 10% FBS, penicillin G (50,000 IU/L), streptomycin (50 mg/L), and hemin (5 µM) in 12.5 cm^2 flasks (HiMedia, Mumbai, India) at 24 °C. The cells were sub-cultured every 48–72 h, 1 × 10^6 cells/mL being the inoculum.
The antileishmanial activity of anthracene endoperoxides (AcEPs) in LdP was established in promastigotes, and cell viability was measured using the modified MTS-PMS assay. Briefly, log phase promastigotes (1 × 10^5 cells/200 µL of Schneider‘s medium/well) were incubated with AcEPs (0–100 µM) for 48 h, and afterwards, parasite viability was measured. For this, MTS (2.0 mg/mL) and PMS (0.92 mg/mL) were added in a ratio of 5:1 (20 µL/well), and plates were incubated for 3 h at 37 °C; resultant absorbance was measured at 490 nm in a spectrofluorimeter (Merilyzer EIaQuant, Meril Life Sciences, Gujarat, India). The mean percent viability was calculated as follows: mean specific absorbance of treated parasites/mean specific absorbance of untreated parasites × 100. Results were expressed as IC50 values. These were enumerated by graphical extrapolation using Graph pad Prism software (version 5).

LtP [2] = experiment: EPR spin trapping (DMPO): activation of AcEPs by LtP; type: cell-based, Leishmania tarentolae; settings: 500 µM compound, 2 × 10^9 LtP/mL, 40 mM DMPO, 15 min, no added iron
Description: To detect the radicals derived from AcEPs in LtP, EPR experiments were performed using DMPO as spin trap. Aliquots of the cell broth were transferred into Sarstedt tubes that were centrifuged (20 °C, 1800× g, 10 min), and the supernatants were discarded. Then the cell pellets were resuspended in PBS and centrifuged again. After removal of the supernatants, the cell pellets were resuspended in a mixture of PBS containing glucose (15 mM), giving a final cell number of 2 × 10^9 LtP/mL. Aliquots (150 µL) were incubated in 1.5 mL Eppendorf tubes with aeration holes. The cells were incubated with DMPO (40 mM) for 5 min at 26 °C, and after addition of 500 µM of the respective substance (Asc, AcEP1117, AcEP1118, AcEP1129, AcEP1130, Ac or AQ), the samples were incubated for additional 15 min at 26 °C under constant agitation (agitation speed: 0.3 s^−1). Control samples containing LtP, LtP and DMSO (1.27%, v/v), or PBS/glucose alone were incubated with 40 mM DMPO under the same conditions. Cell samples containing DMPO that were treated with Asc served as positive control. Samples treated with Ac or AQ were used as negative controls. Subsequently, 50 µL of the samples were aspirated into glass capillaries and transferred in the MD5 resonator of the EPR spectrometer. The samples were measured immediately using the following instrument settings: microwave frequency 9.684 GHz; microwave power 20 mW, modulation frequency 100 kHz; modulation amplitude 2 G; time constant 0.164 s; center field 3449 G; scan rate 71 G/min; sweep width 100 G; scan time 84 s; attenuation 8.93 × 10^5; and scans 3.

LtP [3] = experiment: O2 consumption of LtP (OxoPlates); type: cell-based, Leishmania tarentolae; settings: 140 × 10^6 LtP/mL, 40 min; for influence on LtP respiration (oxygen consumption rate): 6.25–200 µM
Description: Oxygen consumption rates of LtP treated with AcEPs were measured using round-bottomed OxoPlates (OP96U, Precision Sensing GmbH, Regensburg, Germany). An aliquot of BHI culture medium was transferred to an open Erlenmeyer flask and was stirred on a magnetic stirrer for 30 min at 25 °C to saturate it with air (aBHI). Another aliquot of BHI culture medium was mixed with approximately 50 mg of the reducing agent sodium dithionite in a tightly closed falcon tube to remove the dissolved oxygen (dBHI). Aliquots of 200 µL of both calibration media were distributed to 6 wells each of the first row of an OxoPlate. To prevent oxygen exchange with the environment, 70 µL of paraffin oil were layered on top of each well containing liquid. The plate was then incubated in the dark for 15 min at 25 °C for equilibration. Then the fluorescence of both calibration media was measured at a microplate reader (Perkin Elmer Enspire, Germany) in a dual kinetic mode using an excitation wavelength of 540 nm for both of the dyes, emission wavelengths of 650 nm for the indicator dye, and 590 nm for the reference dye. The ratio of both intensities (IR) was calculated for each well and averaged giving the two calibration constants k0 or k100. From the second row on, each well was filled with 50 µL of aBHI. The third row was provided with extra 50 µL of aBHI. The respective amounts of the anthracene derivatives (Ac, AQ, AcEP1117, AcEP1118, AcEP1129, AcEP1130) were added and mixed properly. A serial dilution was performed by transferring 50 µL of the mixture in five subsequent 1:2 steps. LtP (140 × 10^6 cells/mL) were suspended in aBHI and aliquots of 150 µL were transferred to each well giving a maximal final concentration of the AcEPs of 200 µM, declining with onward 1:2 dilution steps. On top of each well, 70 µL of paraffin oil was added. The fluorescence intensity of each well was determined in 5 min intervals over 40 min. Each concentration was measured in quadruplicates. The oxygen concentration was calculated using the following equation (PreSens–Precision Sensing GmbH):O2 [µM] = 100 × (k0/IR − 1) / (k0/k100 − 1) × 2.83
The slope of the change of the oxygen concentrations over time was calculated giving the oxygen consumption rate [µM/min] for each well. The value obtained for aBHI was subtracted to eliminate the influence of the medium. The rate was finally normalized to the oxygen consumption rate of the wells that did contain cells but no test compounds.

| IC50 ([1]; Leishmania donovani, 48 h) | IC50 [1] | Structure (SMILES) | DMPO spin adduct formation in LtP (EPR) (LtP [2]) | influence on LtP respiration (oxygen consumption rate) (LtP [3]) | concentration from which oxygen consumption is significantly decreased (LtP [3]; p < 0.05 vs 0 µM) |
| --- | --- | --- | --- | --- | --- |
| 2.65 ± 0.34 µM |  | c1ccc2c(c1)C1OOC2c2ccccc21 [AcEP1117, 9,10-dihydro-9,10-epidioxidoanthracene] | no spin adducts were observed | no considerable influence on the LtP respiration up to concentrations of 200 µM |  |
| 39.5 ± 3.48 µM |  | CCc1ccc2c(c1)C1OOC2c2ccccc21 (stereo not shown) [AcEP1130, 2-ethyl-9,10-dihydro-9,10-epidioxidoanthracene] | no spin adducts were observed | significant decline in the oxygen consumption rate at higher concentrations |  |
|  |  | O=C1c2ccccc2C(=O)c2ccccc21 [AQ, anthraquinone, reference compound] | neither Ac nor AQ resulted in detectable DMPO spin adducts | no considerable influence on the LtP respiration up to concentrations of 200 µM |  |
|  |  | c1ccc2cc3ccccc3cc2c1 [Ac, anthracene] | neither Ac nor AQ resulted in detectable DMPO spin adducts | no considerable influence on the LtP respiration up to concentrations of 200 µM |  |
| < 1 µM | 0.55 ± 0.11 µM | N=C(N)c1ccc(OCCCCCOc2ccc(C(=N)N)cc2)cc1 [Pen, pentamidine, reference compound] |  |  |  |
| 4.1 ± 0.94 µM |  | CC12OOC(C)(c3ccccc31)c1ccccc12 [AcEP1118, 9,10-dimethyl-9,10-dihydro-9,10-epidioxidoanthracene] | a moderate intensity DMPO spin adduct was observed | no considerable influence on the LtP respiration up to concentrations of 200 µM |  |

| Structure (SMILES) | IC50 ([1]; Leishmania donovani, 48 h) | IC50 [1] | DMPO spin adduct formation in LtP (EPR) (LtP [2]) | influence on LtP respiration (oxygen consumption rate) (LtP [3]) | concentration from which oxygen consumption is significantly decreased (LtP [3]; p < 0.05 vs 0 µM) |
| --- | --- | --- | --- | --- | --- |
| CC12OOC(c3ccccc31)c1ccccc12 [AcEP1129, 9-methyl-9,10-dihydro-9,10-epidioxidoanthracene] | 4.21 ± 0.36 µM |  | high intensity EPR spectra of spin adducts were observed | significant decline in the oxygen consumption rate at higher concentrations | 25 µM |

From publication PMC6100073, “Activation of Anthracene Endoperoxides in Leishmania and Impairment of Mitochondrial Functions” (Molecules : A Journal of Synthetic Chemistry and Natural …, 2018)
